Assay results published in patent US6426340B1, “Prevention and treatment of colorectal cancer by 6-fluoroursodeoxycholic acid (6-FUDCA)” (Novartis AG, priority 1996, dated 2002).
Marks after values point to notes of the source that are not given here.

Assays:
[1] = test system: aberrant crypt foci (ACF) in AOM rat model; assay: Development of ACF in AOM rat model, 5 weeks study; format: in vivo, Male albino Fischer-344 rats; conditions: diet with UDCA 0.4%, 6-FUDCA 0.4% or piroxicam 75 ppm, means ± Std. Dev., N=10
Text: Animals. Male albino Fischer-344 rats, initially weighing approximately 90-130 g, were used in these experiments. All diets were obtained from Dyets, Inc. (Bethlehem, Pa.). On arrival, the animals were quarantined for 1 week and then divided into the following experimental groups: Group 1—Standard AIN-76 diet only with no added agents (control group). Group 2—AIN-76 diet plus UDCA 0.4%. Group 3—AIN-76 diet plus 6-FUDCA 0.4%. Group 4—AIN-76 diet plus piroxicam 75 ppm (included for a known positive drug control). Protocol of Study. All rats were fed their assigned diets for 2 weeks, following which 10 rats in each group (except control group) were given s.c. injections of AOM (Sigma Chemical Co.; 15 mg/kg body weight) once a week for 2 weeks, while 5 rats received AOM vehicle. Control rats received AOM vehicle only. A week later (at week 3) rats received a second dose of carcinogen (AOM 15 mg/kg) while control rats received AOM vehicle. Each group was then maintained on their respective experimental diet for an additional 3 weeks. At this time, day 42, the rats were sacrificed; their colons were removed, opened, washed with normal saline, and examined macroscopically and microscopically for the presence of tumors. Aberrant crypts were quantified by direct microscopic counting of methylene blue stained whole colon. Stool specimens were removed from the colon at the time of termination, snap frozen, and maintained frozen for subsequent analysis of fecal bile acids. Statistical Methods. The data were analyzed using the Aspin-Welch t-test, two sided. A value of P<0.05 was considered significant.

[2] = test system: aberrant crypt foci (ACF) in AOM rat model; assay: Development of ACF in AOM rat model, 12 weeks study; format: in vivo, Male albino Fischer-344 rats; conditions: for Multiplicity of ACF / Nr of ACF / Total AC count: AOM rat model, 12 weeks study, diet supplementation, means ± Std. Dev., N=12
Description: Animals. Male albino Fischer-344 rats, initially weighing approximately 90-130 g, were used in these experiments. All diets were obtained from Dyets, Inc. (Bethlehem, Pa.). On arrival, the animals were quarantined for 1 week and then divided into the following experimental groups: Protocol of Study. […] Control rats received AOM vehicle only. A week later (at week 3) rats received a second dose of carcinogen (AOM 15 mg/kg) while control rats received AOM vehicle. […] Aberrant crypts were quantified by direct microscopic counting of methylene blue stained whole colon. Stool specimens were removed from the colon at the time of termination, snap frozen, and maintained frozen for subsequent analysis of fecal bile acids. Statistical Methods. The data were analyzed using the Aspin-Welch t-test, two sided. A value of P<0.05 was considered significant. The protocol for this Example was the same as that for Example I except that 12 rats were included in each AOM-treated group and 6 rats in each control group. Carcinogen was administered on Days 14 and 21. The rats were then continued on the diets containing the experimental drugs for an additional 10 weeks. The following tables set forth the data obtained in the study.

[3] = Analysis of fecal bile acid levels in the diet-supplemented rats; format: in vivo
Description: Protocol of Study. All rats were fed their assigned diets for 2 weeks, following which 10 rats in each group (except control group) were given s.c. injections of AOM (Sigma Chemical Co.; 15 mg/kg body weight) once a week for 2 weeks, while 5 rats received AOM vehicle. Control rats received AOM vehicle only. A week later (at week 3) rats received a second dose of carcinogen (AOM 15 mg/kg) while control rats received AOM vehicle. Each group was then maintained on their respective experimental diet for an additional 3 weeks. At this time, day 42, the rats were sacrificed; their colons were removed, opened, washed with normal saline, and examined macroscopically and microscopically for the presence of tumors. Aberrant crypts were quantified by direct microscopic counting of methylene blue stained whole colon. Stool specimens were removed from the colon at the time of termination, snap frozen, and maintained frozen for subsequent analysis of fecal bile acids.
Therefore, 6-FUDCA enriches rat bile with therapeutic bile acid to a greater extent then can UDCA. Furthermore, 6-FUDCA reduces the formation of bile acids which are potentially toxic to the colonic mucosa.

[4] = Physicochemical properties of 6-FUDCA compared with UDCA
Text: Additionally, the retention time on C-18 reverse phase HPLC was different for the two fluorinated diastereoisomers. […] The invention relates to the single isomers or diastereoisomers of 6-FUDCA and mixtures thereof.

[5] = test system: intestinal bacterial flora; conditions: 7-dehydroxylation by intestinal bacterial flora; cited from earlier work

Row | SMILES | Multiplicity of ACF [1] | Nr of ACF [1] | Total AC count [1] | Multiplicity of ACF [2] | Nr of ACF [2] | Total AC count [2] | Aberrant crypts per aberrant crypt focus (FIG. 3) ([2]; rats treated with 6-FUDCA, AOM model) | DC and hyoDC in the feces ([3]; 6-FUDCA rats compared with UDCA rats) | Metabolism by bacteria in the gut ([3]; rat, fecal bile acid analysis) | Hydrophilicity (C-18 reverse phase HPLC) ([4]; 6-α-epimer, with respect to UDCA) | Critical micellar concentration ([4]; compared with UDCA) | Critical micellar pH ([4]; compared with UDCA) | Water solubility ([4]; compared with UDCA) | Resistance to bacterial dehydroxylation [5]
1 | C[C@H](CCC(=O)O)[C@H]1CC[C@H]2[C@@H]3[C@@H](O)[C@H](F)[C@@H]4C[C@H](O)CC[C@]4(C)[C@H]3CC[C@]12C [6-FUDCA, 3α, 7βdihydroxy-6α-fluoro-5β-cholanoic acid] | 1.9 ± 0.1^b) | 84.4 ± 16.3 | 160.7 ± 34.6^b) | 2.7 ± 0.3^b) | 130.1 ± 35.5^b) | 350.6 ± 87.3^b) | aberrant crypt foci with fewer aberrant crypts | less DC and hyoDC are seen in the feces of 6-FUDCA rats than in UDCA rats | not metabolized by bacteria in the gut | increased hydrophilicity with respect to UDCA | slightly lower | lower than that of UDCA | higher than that of UDCA | extremely resistant to bacterial dehydroxylation
2 | CN1C(C(=O)Nc2ccccn2)=C(O)c2ccccc2S1(=O)=O [PIROXICAM, piroxicam] | 3.0 ± 0.2 | 62.9 ± 9.4^b) | 190.1 ± 30.7^b) | 3.4 ± 0.3 | 156.3 ± 34.0^b) | 625.3 ± 136.1^b) | – | – | – | – | – | – | – | –
3 | C[C@H](CCC(=O)O)[C@H]1CC[C@H]2[C@@H]3[C@@H](O)C[C@@H]4C[C@H](O)CC[C@]4(C)[C@H]3CC[C@]12C [UDCA, ursodeoxycholic acid] | 2.0 ± 0.2^b) | 108.1 ± 34.7 | 218.3 ± 73.3^b) | 2.8 ± 0.2^b) | 161.2 ± 37.8^b) | 445.5 ± 87.4^b) | – | – | – | – | – | – | – | –
